Columns and labels:
CDK2/Cyclin E = CDK2/Cyclin E (Homo sapiens, UniProt P24941); experiment: CDK2/Cyclin E biochemical phosphorylation assay (Caliper mobility shift); conditions: apparent IC50; 1.0 mM ATP or ATP Km; 1.25 nM enzyme; 25° C.; read-out: CDK2/cyclin E1 IC50
Protocol: (§1) Inhibitory effects of the compounds of the disclosure were measured in biochemical assays that measure the enzymatic phosphorylation activity of CDK enzyme in complex of Cyclin proteins phosphorylates 7.5 micromolar fluorescently labelled peptide substrate, 5-FAM-QSPKKG-CONH2, (FL-Peptide 18, Perkin Elmer, 760362) in the presence of adenosine-5′-triphosphate (ATP) and varying concentrations of the test compound in 100 mM 2-[4-(2-hydroxyethyl)piperazin-1-yl] ethanesulfonic acid (HEPES), pH 7.5, 10 mM MgCl2, 0.015% Brij-35, 1 mM dithiothreitol (DTT), 1.0% dimethylsulfoxide (DMSO). Assays were performed at 1.0 mM ATP or at ATP Km of the CDK enzymes in complex with Cyclin proteins. Reactions proceeded until between 10% to 20% total peptides were phosphorylated at room temperature (25° C.) and were terminated with 35 mM 2,2′,2″,2′″-(ethane-1,2-diyldinitrilo)tetraacetic acid (EDTA). Product was detected using the Caliper mobility shift detection method where the phosphorylated peptide (product) and substrate were electrophoretically separated and measured. Percent activity was plotted against log concentration of compound and points to generate an apparent IC50. The following CDK enzymes in complex with different cyclin proteins were used in these assays: • CDK1/Cyclin B1, GST-tag (BPS, 40454), 1.5 nM used in the assay • CDK2/Cyclin E (Eurofins, 14-475), 1.25 nM used in the assays
(§2) For inhibitory activity against CDK2/Cyclin E mutant, the following designations are used: ≤10 nM=A; >10-20 nM=B; >20-30 nM=C; >30-100 nM=D and >100=E. For inhibition CDK1/Cyclin B1, GST-tag: ≥500 nM=A; <100-500 nM=B; <100 nM=C.

CDK1/Cyclin B1, GST-tag = target: T1, CDK1/Cyclin B1, GST-tag (Homo sapiens, UniProt P06493); experiment: CDK1/Cyclin B1 biochemical phosphorylation assay (Caliper mobility shift); conditions: apparent IC50; 1.0 mM ATP or ATP Km; 1.5 nM enzyme; 25° C.
T1 construct: GST
T1 sequence (P06493 whole entry): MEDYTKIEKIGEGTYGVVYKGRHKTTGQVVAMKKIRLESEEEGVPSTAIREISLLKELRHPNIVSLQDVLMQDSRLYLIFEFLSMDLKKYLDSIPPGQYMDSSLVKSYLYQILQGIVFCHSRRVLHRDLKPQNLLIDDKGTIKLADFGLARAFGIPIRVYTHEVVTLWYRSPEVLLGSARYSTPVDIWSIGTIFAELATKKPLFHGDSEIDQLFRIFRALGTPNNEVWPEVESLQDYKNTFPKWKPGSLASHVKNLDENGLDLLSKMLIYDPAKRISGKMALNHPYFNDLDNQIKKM
T1 sequence (P14635 whole entry partner): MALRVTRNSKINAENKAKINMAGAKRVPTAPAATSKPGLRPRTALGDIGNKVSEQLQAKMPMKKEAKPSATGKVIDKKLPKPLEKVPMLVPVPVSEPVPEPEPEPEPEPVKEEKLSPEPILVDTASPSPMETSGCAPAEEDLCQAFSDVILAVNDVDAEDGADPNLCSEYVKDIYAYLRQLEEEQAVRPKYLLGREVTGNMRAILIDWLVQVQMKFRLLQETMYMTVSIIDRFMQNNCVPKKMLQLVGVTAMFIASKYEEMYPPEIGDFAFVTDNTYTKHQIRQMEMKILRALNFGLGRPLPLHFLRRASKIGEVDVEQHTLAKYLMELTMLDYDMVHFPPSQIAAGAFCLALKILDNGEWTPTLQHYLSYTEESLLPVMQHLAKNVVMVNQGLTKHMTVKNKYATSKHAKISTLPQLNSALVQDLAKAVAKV
Protocol: as §1, §2

| Compound | IC50 (CDK2/Cyclin E) [nM] | IC50 (CDK1/Cyclin B1, GST-tag) [nM] |
| --- | --- | --- |
| FC[C@H](c1ccccn1)n1ncc2ncc(Nc3cc(OC(F)F)[nH]n3)nc21 (single isomer, unassigned) [Example 16, (S)—N-(5-(difluoromethoxy)-1H-pyrazol-3-yl)-1-(2-fluoro-1-(pyridin-2-yl)ethyl)-1H-pyrazolo[3,4-b]pyrazin-6-amine or (R)—N-(5-(difluoromethoxy)-1H-pyrazol-3-yl)-1-(2-fluoro-1-(pyridin-2-yl)ethyl)-1H-pyrazolo[3,4-b]pyrazin-6-amine] | ≤ 10 | ≥ 500 |
| FC[C@H](c1cccnc1)n1ncc2ncc(Nc3cc(OC(F)F)[nH]n3)nc21 (single isomer, unassigned) [Example 18, (S)—N-(5-(difluoromethoxy)-1H-pyrazol-3-yl)-1-(2-fluoro-1-(pyridin-3-yl)ethyl)-1H-pyrazolo[3,4-b]pyrazin-6-amine or (R)—N-(5-(difluoromethoxy)-1H-pyrazol-3-yl)-1-(2-fluoro-1-(pyridin-3-yl)ethyl)-1H-pyrazolo[3,4-b]pyrazin-6-amine] | 20 to 30 | ≥ 500 |
| FC[C@@H](c1cccnc1)n1ncc2ncc(Nc3cc(OC(F)F)[nH]n3)nc21 (single isomer, unassigned) [Example 19, (R)—N-(5-(difluoromethoxy)-1H-pyrazol-3-yl)-1-(2-fluoro-1-(pyridin-3-yl)ethyl)-1H-pyrazolo[3,4-b]pyrazin-6-amine or (S)—N-(5-(difluoromethoxy)-1H-pyrazol-3-yl)-1-(2-fluoro-1-(pyridin-3-yl)ethyl)-1H-pyrazolo[3,4-b]pyrazin-6-amine] | ≤ 10 | 100 to 500 |
| O=C1C[C@H](Cn2ncc3ncc(Nc4cc(OC(F)F)[nH]n4)nc32)CN1 (single isomer, unassigned) [Example 20, (S)-4-((6-((5-(difluoromethoxy)-1H-pyrazol-3-yl)amino)-1H-pyrazolo[3,4-b]pyrazin-1-yl)methyl)pyrrolidin-2-one or (R)-4-((6-((5-(difluoromethoxy)-1H-pyrazol-3-yl)amino)-1H-pyrazolo[3,4-b]pyrazin-1-yl)methyl)pyrrolidin-2-one] | ≤ 10 | ≥ 500 |
| O=C1C[C@@H](Cn2ncc3ncc(Nc4cc(OC(F)F)[nH]n4)nc32)CN1 (single isomer, unassigned) [Example 21, (R)-4-((6-((5-(difluoromethoxy)-1H-pyrazol-3-yl)amino)-1H-pyrazolo[3,4-b]pyrazin-1-yl)methyl)pyrrolidin-2-one or (S)-4-((6-((5-(difluoromethoxy)-1H-pyrazol-3-yl)amino)-1H-pyrazolo[3,4-b]pyrazin-1-yl)methyl)pyrrolidin-2-one] | 20 to 30 | ≥ 500 |
| C[C@@H](c1cccnn1)n1ncc2ncc(Nc3cc(OC(F)F)[nH]n3)nc21 (single isomer, unassigned) [Example 24, (S)—N-(5-(difluoromethoxy)-1H-pyrazol-3-yl)-1-(1-(pyridazin-3-yl)ethyl)-1H-pyrazolo[3,4-b]pyrazin-6-amine or (R)—N-(5-(difluoromethoxy)-1H-pyrazol-3-yl)-1-(1-(pyridazin-3-yl)ethyl)-1H-pyrazolo[3,4-b]pyrazin-6-amine] | ≤ 10 | 100 to 500 |
| C[C@H](c1cccnn1)n1ncc2ncc(Nc3cc(OC(F)F)[nH]n3)nc21 (single isomer, unassigned) [Example 25, (R)—N-(5-(difluoromethoxy)-1H-pyrazol-3-yl)-1-(1-(pyridazin-3-yl)ethyl)-1H-pyrazolo[3,4-b]pyrazin-6-amine or (S)—N-(5-(difluoromethoxy)-1H-pyrazol-3-yl)-1-(1-(pyridazin-3-yl)ethyl)-1H-pyrazolo[3,4-b]pyrazin-6-amine] | 30 to 100 | ≥ 500 |
| N#C[C@@H]1C[C@H]1Cn1ncc2ncc(Nc3cc(OC(F)F)[nH]n3)nc21 (single isomer, unassigned) [Example 26, (1R,2R)-2-((6-((5-(difluoromethoxy)-1H-pyrazol-3-yl)amino)-1H-pyrazolo[3,4-b]pyrazin-1-yl)methyl)cyclopropane-1-carbonitrile or (1S,2S)-2-((6-((5-(difluoromethoxy)-1H-pyrazol-3-yl)amino)-1H-pyrazolo[3,4-b]pyrazin-1-yl)methyl)cyclopropane-1-carbonitrile] | > 100 | ≥ 500 |
| N#C[C@H]1C[C@@H]1Cn1ncc2ncc(Nc3cc(OC(F)F)[nH]n3)nc21 (single isomer, unassigned) [Example 27, (1S,2S)-2-((6-((5-(difluoromethoxy)-1H-pyrazol-3-yl)amino)-1H-pyrazolo[3,4-b]pyrazin-1-yl)methyl)cyclopropane-1-carbonitrile or (1R,2R)-2-((6-((5-(difluoromethoxy)-1H-pyrazol-3-yl)amino)-1H-pyrazolo[3,4-b]pyrazin-1-yl)methyl)cyclopropane-1-carbonitrile] | ≤ 10 | 100 to 500 |
| FC(F)Oc1cc(Nc2cnc3cnn([C@H](C(F)F)C4CCOCC4)c3n2)n[nH]1 (single isomer, unassigned) [Example 28, (S)-1-(2,2-difluoro-1-(tetrahydro-2H-pyran-4-yl)ethyl)-N-(5-(difluoromethoxy)-1H-pyrazol-3-yl)-1H-pyrazolo[3,4-b]pyrazin-6-amine or (R)-1-(2,2-difluoro-1-(tetrahydro-2H-pyran-4-yl)ethyl)-N-(5-(difluoromethoxy)-1H-pyrazol-3-yl)-1H-pyrazolo[3,4-b]pyrazin-6-amine] | 20 to 30 | ≥ 500 |
| FC(F)Oc1cc(Nc2cnc3cnn([C@@H](C(F)F)C4CCOCC4)c3n2)n[nH]1 (single isomer, unassigned) [Example 29, (R)-1-(2,2-difluoro-1-(tetrahydro-2H-pyran-4-yl)ethyl)-N-(5-(difluoromethoxy)-1H-pyrazol-3-yl)-1H-pyrazolo[3,4-b]pyrazin-6-amine or (S)-1-(2,2-difluoro-1-(tetrahydro-2H-pyran-4-yl)ethyl)-N-(5-(difluoromethoxy)-1H-pyrazol-3-yl)-1H-pyrazolo[3,4-b]pyrazin-6-amine] | ≤ 10 | ≥ 500 |
| FC[C@@H](C1CCOCC1)n1ncc2ncc(Nc3cc(OC(F)F)[nH]n3)nc21 (single isomer, unassigned) [Example 31] | ≤ 10 | < 100 |
| COc1cc(Nc2cnc3cnn(C(C)c4cccnn4)c3n2)n[nH]1 (single isomer, unassigned) [Example 32, (S)—N-(5-methoxy-1H-pyrazol-3-yl)-1-(1-(pyridazin-3-yl)ethyl)-1H-pyrazolo[3,4-b]pyrazin-6-amine or (R)—N-(5-methoxy-1H-pyrazol-3-yl)-1-(1-(pyridazin-3-yl)ethyl)-1H-pyrazolo[3,4-b]pyrazin-6-amine] | 20 to 30 | ≥ 500 |
| COc1cc(Nc2cnc3cnn(C(C)c4cccnn4)c3n2)n[nH]1 (single isomer, unassigned) [Example 33, (R)—N-(5-methoxy-1H-pyrazol-3-yl)-1-(1-(pyridazin-3-yl)ethyl)-1H-pyrazolo[3,4-b]pyrazin-6-amine or (S)—N-(5-methoxy-1H-pyrazol-3-yl)-1-(1-(pyridazin-3-yl)ethyl)-1H-pyrazolo[3,4-b]pyrazin-6-amine] | ≤ 10 | 100 to 500 |
| FC[C@@H](c1ccccc1)n1ncc2ncc(Nc3cc(OC(F)F)[nH]n3)nc21 (single isomer, unassigned) [Example 89, (R)-N-(5-(difluoromethoxy)-1H-pyrazol-3-yl)-1-(2-fluoro-1-phenylethyl)-1H-pyrazolo[3,4-b]pyrazin-6-amine or (S)-N-(5-(difluoromethoxy)-1H-pyrazol-3-yl)-1-(2-fluoro-1-phenylethyl)-1H-pyrazolo[3,4-b]pyrazin-6-amine] | ≤ 10 | ≥ 500 |
| FC[C@H](c1ccccc1)n1ncc2ncc(Nc3cc(OC(F)F)[nH]n3)nc21 (single isomer, unassigned) [Example 90, (S)-N-(5-(difluoromethoxy)-1H-pyrazol-3-yl)-1-(2-fluoro-1-phenylethyl)-1H-pyrazolo[3,4-b]pyrazin-6-amine or (R)-N-(5-(difluoromethoxy)-1H-pyrazol-3-yl)-1-(2-fluoro-1-phenylethyl)-1H-pyrazolo[3,4-b]pyrazin-6-amine] | 30 to 100 | ≥ 500 |
| FC(F)Oc1cc(Nc2cnc3cnn(C[C@H]4CCCOC4)c3n2)n[nH]1 (single isomer, unassigned) [Example 141, (R)-N-(5-(difluoromethoxy)-1H-pyrazol-3-yl)-1-((tetrahydro-2H-pyran-3-yl)methyl)-1H-pyrazolo[3,4-b]pyrazin-6-amine or (S)-N-(5-(difluoromethoxy)-1H-pyrazol-3-yl)-1-((tetrahydro-2H-pyran-3-yl)methyl)-1H-pyrazolo[3,4-b]pyrazin-6-amine] | ≤ 10 | ≥ 500 |

From patent publication US11970498B2, “CDK2 inhibitors” (BLUEPRINT MEDICINES CORPORATION, priority 2021, dated 2024)
